From publication PMC6143625, “A high throughput screen for next-generation leads targeting malaria parasite transmission” (Nature Communications, 2018)

Experiments:
[1] = test system: P. falciparum stage V male gametocytes (male gamete formation); assay: P. falciparum dual gamete formation assay (Pf DGFA), male readout (exflagellation), 48 h carry-over format; assay type: cell-based, Plasmodium falciparum NF54; details: primary screen, 2 uM, 48 h incubation, single replicate
[2] = test system: P. falciparum stage V female gametocytes (female gamete formation); assay: P. falciparum dual gamete formation assay (Pf DGFA), female readout (Pfs25 expression), 48 h carry-over format; assay type: cell-based, Plasmodium falciparum NF54; details: primary screen, 2 uM, 48 h incubation, single replicate

Structure (SMILES) | %Inhibition Male @2uM [1] [%] | %Inhibition Female @2uM [2] [%]
CCc1ccc(CN(C)C(=O)C2CC(=O)N(c3cccc(O)c3)C2)nc1 (stereo not shown) [DDD01246796] | 126.32 | <30
C=C1C(C)(C)[C@@H]2CC[C@]1(C(=O)N1CCC(n3cc(CCO)nn3)CC1)C2 [DDD01246808] | <30 | 30.26
COCCN(C)CCN1CC2(CCN(C3CCSC3)CC2)OC1=O (stereo not shown) [DDD01246844] | 176.84 | <30
Cc1cccc(C(=O)N2CCCC(c3nccn3Cc3cscn3)C2)n1 (stereo not shown) [DDD01247041] | 160.00 | <30
Cc1ccccc1OCC(=O)N1CCOC2(CNCCOC2)C1 (stereo not shown) [DDD01247077] | 174.44 | <30
COc1cccc(Cn2c(C)c(C)oc2=O)c1OC [DDD01247327] | <30 | 30.45
CN(C)CC(=O)NC1CC(C)(C)Cc2nc(C(C)(C)C)ncc21 (stereo not shown) [DDD01247509] | <30 | 43.65
c1cc(CN2CCC(c3ccncc3)CC2)cc(Cn2cccn2)c1 [DDD01247553] | 75.89 | <30
CCNC(=O)[C@@H]1C[C@H](N)CN1C(=O)C1(c2ccc(OC)cc2)CCCC1 [DDD01247775] | <30 | 31.68
Cc1ccc(CN(Cc2ccncc2)C2CCN(C)CC2)s1 [DDD01247850] | <30 | 35.49
CSc1nccc(N2CCC(=O)N(CC3CC3)C(C(C)C)C2)n1 (stereo not shown) [DDD01248006] | 91.33 | <30
CCn1c(C2CCCN(C(=O)c3ccc[nH]3)C2)nn(CCN(C)C)c1=O (stereo not shown) [DDD01248239] | 83.64 | <30
CCc1ccc(CN(C)Cc2cnc(S(=O)(=O)CC)n2CCOC)cc1 [DDD01248618] | 143.16 | <30
O=C(O)C1(Oc2ccccc2F)CCN(C/C=C/c2ccco2)CC1 [DDD01248641] | <30 | 35.65
CN(C)C(=O)NCc1cc2n(n1)CCCN(CC1CCCNC1)C2 (stereo not shown) [DDD01248722] | 166.37 | <30
Cc1cccc2[nH]c(C3CCN(C(=O)c4ccc[nH]4)CC3)nc12 [DDD01248889] | 179.77 | <30
Cc1nc2cc(OCc3nc(C(=O)NC(C)(CO)CO)co3)ccc2s1 [DDD01248928] | 109.47 | <30
Cc1cccc(N2CCC(N3CCCC4(CNC(=O)O4)C3)CC2)c1C (stereo not shown) [DDD01248972] | <30 | 36.41
CCCn1cc(C(=O)NC2CCC(n3cnnc3)CC2)c(C)n1 (stereo not shown) [DDD01249122] | 90.61 | <30
COc1cccc2c1OCC(C(=O)N1CCSCC1)C2 (stereo not shown) [DDD01249304] | 51.06 | <30
O=C(c1ccccc1)N1CCCC(Nc2ccc(F)cc2)C1 (stereo not shown) [DDD01249390] | 180.87 | <30
Cc1noc(CN(C)C(=O)c2[nH]nc(N)c2-c2ccccc2)n1 [DDD01249532] | <30 | 61.65
Cc1nn(C)c2nc(N(C)CC3CCN(CC(C)C)C3)sc12 (stereo not shown) [DDD01249587] | <30 | 47.43
COc1cccc(OC2CN(C(=O)c3sccc3C)C2)c1 [DDD01250000] | <30 | 64.75

Structure (SMILES) | %Inhibition Male @2uM [1] [%] | %Inhibition Female @2uM [2] [%]
CN1CCC(N(C)C[C@H]2CC[C@@H](Cc3ccc4occc4c3)O2)CC1 [DDD01250070] | <30 | 33.03
CCc1nn(C)c(Cl)c1CN1CCCC2(CC1)CN(C)C(=O)O2 (stereo not shown) [DDD01250081] | <30 | 32.84
CN(C)Cc1nnc(C2CCN(c3ncccn3)CC2)n1C1CC1 [DDD01250187] | 31.65 | <30
CCc1ccccc1C(=O)N1C[C@@H](CN2CCOCC2)[C@@H](CO)C1 [DDD01250732] | 143.16 | <30
O=C(c1ccccn1)N1C[C@H]2CC[C@@H](C1)N(C(=O)CCC1CCCC1)C2 [DDD01250927] | 61.83 | <30
O=C(c1ccccc1)N1C[C@H]2CC[C@@H](C1)N(Cc1cc(F)ccc1Cl)C2 [DDD01251068] | 176.84 | <30
Cc1oc(-c2ccoc2)nc1CN1CCC[C@H]1CO [DDD01251548] | 131.44 | <30
CN(C)c1nccnc1N1CC[C@@]2(O)CCNC[C@H]2C1 [DDD01251755] | <30 | 48.40
COc1ccc(CN2CCC3(CCCNC3)C2)cc1Cn1cccn1 (stereo not shown) [DDD01251771] | 126.32 | <30
CN(C)C(C(=O)N1CC(Oc2ccccc2F)C1)c1ccc(F)cc1 (stereo not shown) [DDD01251854] | <30 | 43.98
Cc1ocnc1C(=O)N1CCC(c2nccn2Cc2ccncc2)CC1 [DDD01252089] | 78.03 | <30
CN(C)c1ccccc1C(=O)N1CCOC2(CNCCOC2)C1 (stereo not shown) [DDD01252114] | 137.91 | <30
COc1cccc2c1OCC(C(=O)N1CCN(C3CCCC3)C(=O)C1)C2 (stereo not shown) [DDD01252180] | 176.84 | <30
COc1ccc(-c2cc(CNc3ncnc4c3CCNCC4)no2)cc1 [DDD01252258] | <30 | 36.22
CN(C)c1nc2c(c(N(C)C)n1)CCN(C(=O)CN1C[C@H]3CC[C@@H]1C3)C2 [DDD01252415] | <30 | 30.39
Cc1c(NCc2cccnc2)cccc1C(=O)N1CCC(N(C)C)C1 (stereo not shown) [DDD01252445] | 39.91 | <30
c1ccn2c(C3CCCN(c4ncnc5c4CCNC5)C3)nnc2c1 (stereo not shown) [DDD01252518] | <30 | 33.03
O=C(c1cccc(S(=O)(=O)NCCc2ccccn2)c1)N1CCOCC1 [DDD01252530] | 176.84 | <30
CN(C)Cc1nnc(C2CCCN(Cc3ccc(Cl)s3)C2)n1C (stereo not shown) [DDD01252876] | 184.62 | <30
Cc1cc(CC(=O)N2CCN(CC(C)C)[C@@H]3CS(=O)(=O)C[C@@H]32)ccc1F [DDD01253102] | 30.33 | <30
Cc1ccc(-c2nc(CNC(C)CCO)[nH]c2-c2ccccn2)cc1 (stereo not shown) [DDD01253542] | 59.22 | 47.40
CN1CC2(CCN(C(=O)c3ccc(=O)n(C)c3)CC2)CC1=O [DDD01253564] | <30 | 30.30
CS(=O)(=O)N1C[C@H]2CC[C@@H](C1)N(C(=O)CCn1cnc3ccccc31)C2 [DDD01253654] | 35.49 | <30
